What was measured:
[1] = biological target: T1, Inhibitor of nuclear factor kappa-B kinase subunit alpha (Homo sapiens) (UniProt O15111); conditions: Compound concentration 1000.0 nM
T1 sequence (whole entry): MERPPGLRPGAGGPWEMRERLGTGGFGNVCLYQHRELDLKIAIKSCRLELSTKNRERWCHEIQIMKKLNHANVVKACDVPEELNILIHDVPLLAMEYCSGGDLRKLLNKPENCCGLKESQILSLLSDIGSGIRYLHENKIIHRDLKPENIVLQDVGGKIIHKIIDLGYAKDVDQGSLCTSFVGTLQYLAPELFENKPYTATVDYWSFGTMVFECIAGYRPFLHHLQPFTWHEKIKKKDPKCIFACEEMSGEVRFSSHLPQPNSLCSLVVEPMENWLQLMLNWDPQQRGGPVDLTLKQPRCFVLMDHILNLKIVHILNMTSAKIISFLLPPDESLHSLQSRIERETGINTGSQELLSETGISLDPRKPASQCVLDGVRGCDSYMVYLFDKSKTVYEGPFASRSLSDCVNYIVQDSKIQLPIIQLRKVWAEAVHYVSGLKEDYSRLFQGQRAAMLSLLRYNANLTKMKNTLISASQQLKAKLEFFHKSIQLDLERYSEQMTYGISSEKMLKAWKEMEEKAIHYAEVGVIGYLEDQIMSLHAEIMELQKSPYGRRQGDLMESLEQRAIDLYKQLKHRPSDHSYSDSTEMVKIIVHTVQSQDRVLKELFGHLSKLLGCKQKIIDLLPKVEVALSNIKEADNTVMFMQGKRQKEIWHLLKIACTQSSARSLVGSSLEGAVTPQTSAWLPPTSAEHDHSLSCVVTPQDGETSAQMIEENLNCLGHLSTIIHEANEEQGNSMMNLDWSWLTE

[2] = biological target: Interferon-induced, double-stranded RNA-activated protein kinase (Homo sapiens) (UniProt P19525); conditions: Compound concentration 1000.0 nM
Interferon-induced, double-stranded RNA-activated protein kinase (Homo sapiens), sequence (P19525 whole entry): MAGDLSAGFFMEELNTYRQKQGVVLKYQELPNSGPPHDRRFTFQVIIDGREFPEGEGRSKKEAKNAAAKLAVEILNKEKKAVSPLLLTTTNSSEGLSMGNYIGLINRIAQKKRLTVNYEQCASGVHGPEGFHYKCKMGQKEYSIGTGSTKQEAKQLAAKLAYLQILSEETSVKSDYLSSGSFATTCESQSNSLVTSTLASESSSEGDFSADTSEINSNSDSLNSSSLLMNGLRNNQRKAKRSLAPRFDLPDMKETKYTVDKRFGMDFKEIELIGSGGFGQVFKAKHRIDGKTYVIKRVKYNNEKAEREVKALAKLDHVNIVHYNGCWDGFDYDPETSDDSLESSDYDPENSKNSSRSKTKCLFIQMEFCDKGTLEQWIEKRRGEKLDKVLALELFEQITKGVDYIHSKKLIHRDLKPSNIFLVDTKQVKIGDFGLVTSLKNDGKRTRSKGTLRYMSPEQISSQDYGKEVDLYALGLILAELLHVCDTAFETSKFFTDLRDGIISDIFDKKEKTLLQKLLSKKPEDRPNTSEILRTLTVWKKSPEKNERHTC

[3] = biological target: T2, Activin receptor type-1 (Homo sapiens) (UniProt Q04771); conditions: Compound concentration 1000.0 nM
T2 sequence (whole entry): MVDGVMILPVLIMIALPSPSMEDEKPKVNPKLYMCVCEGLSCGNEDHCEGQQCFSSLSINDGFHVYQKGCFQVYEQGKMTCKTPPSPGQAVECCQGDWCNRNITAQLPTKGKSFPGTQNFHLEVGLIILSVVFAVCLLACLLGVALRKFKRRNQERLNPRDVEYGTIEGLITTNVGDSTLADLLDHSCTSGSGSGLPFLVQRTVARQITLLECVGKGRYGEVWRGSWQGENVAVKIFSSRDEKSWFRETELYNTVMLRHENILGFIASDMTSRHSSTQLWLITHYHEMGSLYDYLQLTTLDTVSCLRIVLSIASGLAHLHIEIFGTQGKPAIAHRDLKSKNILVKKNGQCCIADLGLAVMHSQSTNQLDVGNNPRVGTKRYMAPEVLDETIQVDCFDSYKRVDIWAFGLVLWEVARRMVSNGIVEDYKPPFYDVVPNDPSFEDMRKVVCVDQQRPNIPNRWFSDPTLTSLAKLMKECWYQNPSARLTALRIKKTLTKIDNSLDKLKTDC

[4] = biological target: Vascular endothelial growth factor receptor 2 (Homo sapiens) (UniProt P35968); conditions: Compound concentration 1000.0 nM
[5] = system: Serine/threonine-protein kinase B-raf (Homo sapiens), P15056 [V600E]; conditions: Compound concentration 1000.0 nM
[6] = biological target: Wee1-like protein kinase (Homo sapiens) (UniProt P30291); conditions: Compound concentration 1000.0 nM
Wee1-like protein kinase (Homo sapiens), sequence (P30291 whole entry, looked up): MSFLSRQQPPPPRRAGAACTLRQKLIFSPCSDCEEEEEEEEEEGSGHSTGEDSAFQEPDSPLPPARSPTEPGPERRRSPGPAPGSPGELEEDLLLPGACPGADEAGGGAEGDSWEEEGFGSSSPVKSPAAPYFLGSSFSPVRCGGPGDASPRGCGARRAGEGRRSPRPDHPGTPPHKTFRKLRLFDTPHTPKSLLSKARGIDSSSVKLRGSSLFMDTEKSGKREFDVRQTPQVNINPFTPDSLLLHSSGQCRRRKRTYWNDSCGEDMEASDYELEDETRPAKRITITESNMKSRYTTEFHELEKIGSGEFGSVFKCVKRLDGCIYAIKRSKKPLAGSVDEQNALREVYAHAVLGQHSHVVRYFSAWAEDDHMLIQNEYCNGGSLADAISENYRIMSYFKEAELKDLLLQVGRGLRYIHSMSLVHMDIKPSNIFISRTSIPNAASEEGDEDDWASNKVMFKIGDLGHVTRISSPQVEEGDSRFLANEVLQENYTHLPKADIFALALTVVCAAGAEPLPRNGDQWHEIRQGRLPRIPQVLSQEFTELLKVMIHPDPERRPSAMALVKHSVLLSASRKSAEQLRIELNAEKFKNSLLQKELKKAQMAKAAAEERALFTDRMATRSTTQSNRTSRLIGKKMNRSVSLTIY

[7] = biological target: 5-hydroxytryptamine receptor 7 (Homo sapiens) (UniProt P34969); conditions: Compound concentration 10.0 uM
[8] = system: Receptor-type tyrosine-protein kinase FLT3 (Homo sapiens), P36888 [N841I]; conditions: Compound concentration 1000.0 nM
[9] = system: Hepatocyte growth factor receptor (Homo sapiens), P08581 [M1250T]; conditions: Compound concentration 1000.0 nM
[10] = biological target: Phosphatidylinositol 5-phosphate 4-kinase type-2 beta (Homo sapiens) (UniProt P78356); conditions: Compound concentration 1000.0 nM
[11] = biological target: Serine/threonine-protein kinase PAK 2 (Homo sapiens) (UniProt Q13177); conditions: Compound concentration 1000.0 nM
[12] = biological target: Tyrosine-protein kinase CSK (Homo sapiens) (UniProt P41240); conditions: Compound concentration 1000.0 nM
[13] = biological target: Tyrosine-protein kinase JAK2 (Homo sapiens) (UniProt O60674); conditions: Compound concentration 1000.0 nM
Tyrosine-protein kinase JAK2 (Homo sapiens), sequence (O60674 whole entry): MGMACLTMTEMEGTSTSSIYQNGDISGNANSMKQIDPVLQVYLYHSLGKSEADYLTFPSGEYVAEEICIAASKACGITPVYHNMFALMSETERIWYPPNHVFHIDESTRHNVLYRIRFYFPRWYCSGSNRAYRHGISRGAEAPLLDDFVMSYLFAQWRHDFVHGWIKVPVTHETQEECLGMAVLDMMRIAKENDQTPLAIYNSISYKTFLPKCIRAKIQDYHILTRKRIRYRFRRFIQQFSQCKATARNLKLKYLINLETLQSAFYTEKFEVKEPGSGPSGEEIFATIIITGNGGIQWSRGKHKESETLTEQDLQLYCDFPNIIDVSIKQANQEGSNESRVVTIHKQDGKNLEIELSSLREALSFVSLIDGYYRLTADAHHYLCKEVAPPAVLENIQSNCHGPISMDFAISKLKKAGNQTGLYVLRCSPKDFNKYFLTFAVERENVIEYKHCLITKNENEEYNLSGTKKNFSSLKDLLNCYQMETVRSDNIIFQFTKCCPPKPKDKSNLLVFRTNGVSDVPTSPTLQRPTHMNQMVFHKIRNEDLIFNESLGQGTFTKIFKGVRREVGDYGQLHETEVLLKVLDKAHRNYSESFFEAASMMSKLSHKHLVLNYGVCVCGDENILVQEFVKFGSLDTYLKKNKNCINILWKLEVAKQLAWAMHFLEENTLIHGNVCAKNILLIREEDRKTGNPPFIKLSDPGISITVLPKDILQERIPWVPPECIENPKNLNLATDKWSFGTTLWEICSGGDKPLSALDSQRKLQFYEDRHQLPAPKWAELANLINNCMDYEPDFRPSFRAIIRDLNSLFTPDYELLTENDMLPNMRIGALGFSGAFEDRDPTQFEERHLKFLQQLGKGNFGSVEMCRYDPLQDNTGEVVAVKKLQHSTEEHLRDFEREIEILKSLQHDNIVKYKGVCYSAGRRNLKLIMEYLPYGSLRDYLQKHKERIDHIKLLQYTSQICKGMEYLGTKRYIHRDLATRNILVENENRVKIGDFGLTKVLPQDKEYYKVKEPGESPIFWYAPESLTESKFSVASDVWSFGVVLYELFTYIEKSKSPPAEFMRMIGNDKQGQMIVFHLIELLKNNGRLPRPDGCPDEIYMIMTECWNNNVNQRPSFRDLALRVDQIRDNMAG

[14] = biological target: Homeodomain-interacting protein kinase 1 (Homo sapiens) (UniProt Q86Z02); conditions: Compound concentration 1000.0 nM
Homeodomain-interacting protein kinase 1 (Homo sapiens), sequence (Q86Z02 whole entry, looked up): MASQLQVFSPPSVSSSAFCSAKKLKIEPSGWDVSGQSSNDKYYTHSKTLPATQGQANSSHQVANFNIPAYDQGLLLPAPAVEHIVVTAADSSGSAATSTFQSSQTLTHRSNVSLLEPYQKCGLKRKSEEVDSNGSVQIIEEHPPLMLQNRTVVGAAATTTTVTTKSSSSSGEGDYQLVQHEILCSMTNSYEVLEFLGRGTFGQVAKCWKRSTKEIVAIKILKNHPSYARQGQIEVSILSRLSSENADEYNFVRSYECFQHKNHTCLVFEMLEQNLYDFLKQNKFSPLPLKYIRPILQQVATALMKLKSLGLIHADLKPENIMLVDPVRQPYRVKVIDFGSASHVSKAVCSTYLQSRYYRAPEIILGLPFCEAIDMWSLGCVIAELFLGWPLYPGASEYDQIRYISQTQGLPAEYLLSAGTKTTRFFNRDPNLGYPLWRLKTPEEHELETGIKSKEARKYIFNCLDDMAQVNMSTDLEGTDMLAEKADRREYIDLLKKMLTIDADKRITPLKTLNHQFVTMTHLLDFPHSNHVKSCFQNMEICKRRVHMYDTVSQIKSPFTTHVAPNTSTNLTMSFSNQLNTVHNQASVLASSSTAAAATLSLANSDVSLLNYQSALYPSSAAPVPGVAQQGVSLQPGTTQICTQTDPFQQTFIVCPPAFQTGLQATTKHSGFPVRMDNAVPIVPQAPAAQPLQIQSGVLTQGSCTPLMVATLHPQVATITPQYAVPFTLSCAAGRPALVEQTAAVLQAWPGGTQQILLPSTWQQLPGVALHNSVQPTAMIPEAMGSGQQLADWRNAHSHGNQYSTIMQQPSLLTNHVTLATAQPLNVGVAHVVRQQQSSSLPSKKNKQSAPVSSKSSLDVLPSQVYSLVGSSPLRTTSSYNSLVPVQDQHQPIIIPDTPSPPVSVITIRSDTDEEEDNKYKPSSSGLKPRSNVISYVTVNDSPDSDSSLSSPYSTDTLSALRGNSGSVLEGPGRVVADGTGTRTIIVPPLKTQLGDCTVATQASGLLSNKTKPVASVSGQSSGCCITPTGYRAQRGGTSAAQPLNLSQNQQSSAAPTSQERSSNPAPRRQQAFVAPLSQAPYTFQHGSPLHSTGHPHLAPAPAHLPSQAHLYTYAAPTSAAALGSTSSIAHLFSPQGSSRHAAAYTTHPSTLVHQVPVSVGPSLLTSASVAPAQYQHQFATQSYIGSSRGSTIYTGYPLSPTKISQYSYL

[15] = biological target: Mitogen-activated protein kinase kinase kinase 9 (Homo sapiens) (UniProt P80192); conditions: Compound concentration 1000.0 nM
[16] = biological target: Phosphatidylinositol 3-kinase catalytic subunit type 3 (Homo sapiens) (UniProt Q8NEB9); conditions: Compound concentration 1000.0 nM
Phosphatidylinositol 3-kinase catalytic subunit type 3 (Homo sapiens), sequence (Q8NEB9 whole entry): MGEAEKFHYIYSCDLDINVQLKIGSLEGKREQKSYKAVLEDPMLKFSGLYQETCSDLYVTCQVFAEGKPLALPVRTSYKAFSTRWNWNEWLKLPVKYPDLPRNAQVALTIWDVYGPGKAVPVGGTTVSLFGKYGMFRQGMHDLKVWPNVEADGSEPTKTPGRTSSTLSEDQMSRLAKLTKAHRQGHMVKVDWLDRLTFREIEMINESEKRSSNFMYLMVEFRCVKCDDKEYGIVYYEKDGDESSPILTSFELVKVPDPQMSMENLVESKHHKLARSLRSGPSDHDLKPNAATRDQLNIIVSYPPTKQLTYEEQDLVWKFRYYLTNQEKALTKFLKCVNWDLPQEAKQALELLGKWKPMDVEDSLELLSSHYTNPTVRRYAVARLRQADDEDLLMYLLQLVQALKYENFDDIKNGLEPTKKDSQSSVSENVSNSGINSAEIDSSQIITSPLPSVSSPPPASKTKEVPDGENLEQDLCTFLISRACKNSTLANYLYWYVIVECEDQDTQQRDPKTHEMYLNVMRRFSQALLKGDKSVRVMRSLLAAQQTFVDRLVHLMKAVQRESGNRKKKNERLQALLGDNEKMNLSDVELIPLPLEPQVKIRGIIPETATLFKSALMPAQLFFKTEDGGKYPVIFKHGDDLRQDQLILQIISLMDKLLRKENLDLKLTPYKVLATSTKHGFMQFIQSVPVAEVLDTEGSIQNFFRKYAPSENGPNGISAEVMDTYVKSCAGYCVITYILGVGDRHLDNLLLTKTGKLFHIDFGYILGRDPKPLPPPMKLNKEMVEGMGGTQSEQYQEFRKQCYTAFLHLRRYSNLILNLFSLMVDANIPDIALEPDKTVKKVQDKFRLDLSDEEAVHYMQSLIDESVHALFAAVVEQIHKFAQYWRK

[17] = biological target: Ephrin type-A receptor 6 (Homo sapiens) (UniProt Q9UF33); conditions: Compound concentration 1000.0 nM
[18] = biological target: Cyclin-dependent kinase 18 (Homo sapiens) (UniProt Q07002); conditions: Compound concentration 1000.0 nM
[19] = biological target: LIM domain kinase 1 (Homo sapiens) (UniProt P53667); conditions: Compound concentration 1000.0 nM
LIM domain kinase 1 (Homo sapiens), sequence (P53667 whole entry, looked up, the tested form may be a part): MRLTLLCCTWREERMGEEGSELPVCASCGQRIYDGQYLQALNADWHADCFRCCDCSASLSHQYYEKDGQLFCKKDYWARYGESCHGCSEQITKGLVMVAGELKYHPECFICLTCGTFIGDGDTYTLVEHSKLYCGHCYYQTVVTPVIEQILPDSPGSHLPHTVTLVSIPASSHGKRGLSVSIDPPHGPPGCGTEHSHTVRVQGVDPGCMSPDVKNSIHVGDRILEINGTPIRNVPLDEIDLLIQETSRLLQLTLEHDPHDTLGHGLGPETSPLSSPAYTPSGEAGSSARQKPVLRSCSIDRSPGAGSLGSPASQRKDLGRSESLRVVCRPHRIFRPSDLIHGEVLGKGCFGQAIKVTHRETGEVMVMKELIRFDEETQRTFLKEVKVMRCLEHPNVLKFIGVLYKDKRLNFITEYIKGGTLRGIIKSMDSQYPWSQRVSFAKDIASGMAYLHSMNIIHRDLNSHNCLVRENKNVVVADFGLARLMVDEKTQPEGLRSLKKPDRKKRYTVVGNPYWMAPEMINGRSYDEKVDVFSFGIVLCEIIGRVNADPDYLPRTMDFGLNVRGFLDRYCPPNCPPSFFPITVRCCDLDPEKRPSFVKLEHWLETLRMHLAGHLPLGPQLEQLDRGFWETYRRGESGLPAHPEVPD

[20] = biological target: Cyclin-G-associated kinase (Homo sapiens) (UniProt O14976); conditions: Compound concentration 1000.0 nM
[21] = biological target: Insulin receptor (Homo sapiens) (UniProt P06213); conditions: Compound concentration 1000.0 nM
[22] = biological target: Dual specificity mitogen-activated protein kinase kinase 2 (Homo sapiens) (UniProt P36507); conditions: Compound concentration 1000.0 nM

Cc1nc(C2CCN(C(=O)c3ccc(OC(F)(F)F)cc3N)CC2)c2ncc(N3CCN(C)CC3)cc2n1 [BAY-693]
inactive: residual activity [1] 84% | residual activity [2] 95% | residual activity [3] 100% | residual activity [4] 93% | residual activity [5] 100% | residual activity [6] 94% | inhibition [7] -0.78% | residual activity [8] 100% | residual activity [9] 97% | residual activity [10] 78% | residual activity [11] 64% | residual activity [12] 100% | residual activity [13] 99% | residual activity [14] 100% | residual activity [15] 97% | residual activity [16] 95% | residual activity [17] 95% | residual activity [18] 100% | residual activity [19] 93% | residual activity [20] 100% | residual activity [21] 93% | residual activity [22] 100%

CN1CCN(c2cnc3c(C4CCN(C(=O)c5ccc(OC(F)(F)F)cc5N)CC4)ncnc3c2)CC1 [BAY-885]
inactive: residual activity [1] 100% | residual activity [2] 85% | residual activity [3] 100% | residual activity [4] 100% | residual activity [5] 100% | residual activity [6] 96% | inhibition [7] -9.57% | residual activity [8] 100% | residual activity [9] 100% | residual activity [10] 79% | residual activity [11] 100% | residual activity [12] 100% | residual activity [13] 83% | residual activity [14] 99% | residual activity [15] 100% | residual activity [16] 100% | residual activity [17] 100% | residual activity [18] 100% | residual activity [19] 100% | residual activity [20] 100% | residual activity [21] 88% | residual activity [22] 100%

— ChEMBL document CHEMBL4507268 (2021)
